According to US20230322846A9, “NEUROACTIVE STEROIDS AND THEIR METHODS OF USE” (SAGE THERAPEUTICS, INC., priority 2018, published 2023):

biological target: [35S]-TBPS binding, rat brain cortical membranes; test: Steroid inhibition of [35S]-TBPS binding; settings: 3 nM [35S]-TBPS, in the presence of 5 mM GABA
In short: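 In the presence of […], compounds (DMSO 0.5% final) competed with 3 nM [35S]-TBPS for Sprague-Dawley rat cortical membranes, pH 7.4 phosphate buffer, 90 min, room temperature. Filtration and scintillation counting; specific binding defined by […]; IC50 and maximal inhibition fitted per experiment, averaged as mean ± SEM.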

`C[C@H](Cn1cc(C#N)cn1)[C@H]1CC[C@H]2[C@@H]3CC[C@@H]4C[C@](C)(O)CC[C@]4(C)[C@H]3CC[C@]12C` [Example 306, 1-((S)-2-((3R,5R,8R,9S,10S,13S,14S,17R)-3-hydroxy-3,10,13-trimethylhexadecahydro-1H-cyclopenta[a]phenanthren-17-yl)propyl)-1H-pyrazole-4-carbonitrile] and `CCC[C@@]1(O)CC[C@@]2(C)[C@H](CC[C@@H]3[C@@H]2CC[C@]2(C)[C@@H]([C@@H](C)Cn4cc(C#N)cn4)CC[C@@H]32)C1` [Example 307, 1-((R)-2-((3R,5R,8R,9S,10S,13S,14S,17R)-3-hydroxy-10,13-dimethyl-3-propylhexadecahydro-1H-cyclopenta[a]phenanthren-17-yl)propyl)-1H-pyrazole-4-carbonitrile] cannot be ordered by IC50: under 100 nM for the first, under 100 nM for the second.

`CCC[C@@]1(O)CC[C@@]2(C)[C@H](CC[C@@H]3[C@@H]2CC[C@]2(C)[C@@H]([C@H](C)Cn4cc(C#N)cn4)CC[C@@H]32)C1` [Example 308, 1-((S)-2-((3R,5R,8R,9S,10S,13S,14S,17R)-3-hydroxy-10,13-dimethyl-3-propylhexadecahydro-1H-cyclopenta[a]phenanthren-17-yl)propyl)-1H-pyrazole-4-carbonitrile] and `CCC[C@@]1(O)CC[C@@]2(C)[C@H](CC[C@@H]3[C@@H]2[C@@H](O)C[C@]2(C)[C@@H]([C@@H](C)Cn4cc(C#N)cn4)CC[C@@H]32)C1` [Example 309, 1-((R)-2-((3R,5R,8S,9S,10S,11S,13S,14S,17R)-3,11-dihydroxy-10,13-dimethyl-3-propylhexadecahydro-1H-cyclopenta[a]phenanthren-17-yl)propyl)-1H-pyrazole-4-carbonitrile] cannot be ordered by IC50: under 100 nM for the first, under 100 nM for the second.

`CCC[C@@]1(O)CC[C@@]2(C)[C@H](CC[C@@H]3[C@@H]2[C@@H](O)C[C@]2(C)[C@@H]([C@H](C)Cn4cc(C#N)cn4)CC[C@@H]32)C1` [Example 310, 1-((S)-2-((3R,5R,8S,9S,10S,11S,13S,14S,17R)-3,11-dihydroxy-10,13-dimethyl-3-propylhexadecahydro-1H-cyclopenta[a]phenanthren-17-yl)propyl)-1H-pyrazole-4-carbonitrile] and `COC[C@@]1(O)CC[C@@]2(C)[C@H](CC[C@@H]3[C@@H]2[C@@H](O)C[C@]2(C)[C@@H]([C@@H](C)Cn4cc(C#N)cn4)CC[C@@H]32)C1` [Example 327, 1-((R)-2-((3R,5R,8S,9S,10S,11S,13S,14S,17R)-3,11-dihydroxy-3-(methoxymethyl)-10,13-dimethylhexadecahydro-1H-cyclopenta[a]phenanthren-17-yl)propyl)-1H-pyrazole-4-carbonitrile] fall in the same range of IC50: 100 to 1000 nM for the first, 100 to 1000 nM for the second.

`CCCC[C@@]1(O)CC[C@H]2[C@H](CC[C@@H]3[C@@H]2CC[C@]2(C)[C@@H]([C@H](C)Cn4cc(C#N)cn4)CC[C@@H]32)C1` [Example 312] and `CC[C@]12CC[C@H]3[C@@H](CC[C@@H]4C[C@](C)(O)CC[C@@H]43)[C@@H]1CC[C@@H]2[C@@H](C)Cn1cc(C#N)cn1` [Example 317, 1-((R)-2-((3R,5R,8R,9R,10S,13S,14S,17R)-13-ethyl-3-hydroxy-3-methylhexadecahydro-1H-cyclopenta[a]phenanthren-17-yl)propyl)-1H-pyrazole-4-carbonitrile] cannot be ordered by IC50: under 100 nM for the first, under 100 nM for the second.

First: CCC[C@@]1(O)CC[C@@]2(C)[C@H](CC[C@@H]3[C@@H]2CC[C@]2(C)[C@@H]([C@@H](C)Cn4nnc(C)n4)CC[C@@H]32)C1 [Example 313, (3R,5R,8R,9S,10S,13S,14S,17R)-10,13-dimethyl-17-((R)-1-(5-methyl-2H-tetrazol-2-yl)propan-2-yl)-3-propylhexadecahydro-1H-cyclopenta[a]phenanthren-3-ol]
Second: CCC[C@@]1(O)CC[C@@]2(C)[C@H](CC[C@@H]3[C@@H]2CC[C@]2(C)[C@@H]([C@H](C)Cn4nnc(C)n4)CC[C@@H]32)C1 [Example 314, (3R,5R,8R,9S,10S,13S,14S,17R)-10,13-dimethyl-17-((S)-1-(5-methyl-2H-tetrazol-2-yl)propan-2-yl)-3-propylhexadecahydro-1H-cyclopenta[a]phenanthren-3-ol]
The IC50 of the first is lower: under 100 nM for the first, 100 to 1000 nM for the second. The first is the more potent here.

`CCC[C@@]1(O)CC[C@@]2(C)[C@H](CC[C@@H]3[C@@H]2CC[C@]2(C)[C@@H]([C@@H](C)Cn4nnnc4C)CC[C@@H]32)C1` [Example 315, (3R,5R,8R,9S,10S,13S,14S,17R)-10,13-dimethyl-17-((R)-1-(5-methyl-1H-tetrazol-1-yl)propan-2-yl)-3-propylhexadecahydro-1H-cyclopenta[a]phenanthren-3-ol] and `CCC[C@@]1(O)CC[C@@]2(C)[C@H](CC[C@@H]3[C@@H]2CC[C@]2(C)[C@@H]([C@H](C)Cn4nnnc4C)CC[C@@H]32)C1` [Example 316, (3R,5R,8R,9S,10S,13S,14S,17R)-10,13-dimethyl-17-((S)-1-(5-methyl-1H-tetrazol-1-yl)propan-2-yl)-3-propylhexadecahydro-1H-cyclopenta[a]phenanthren-3-ol] cannot be ordered by IC50: under 100 nM for the first, under 100 nM for the second.

First: CC[C@]12CC[C@H]3[C@@H](CC[C@@H]4C[C@](C)(O)CC[C@@H]43)[C@@H]1CC[C@@H]2[C@H](C)Cn1cc(C#N)cn1 [Example 318, 1-((S)-2-((3R,5R,8R,9R,10S,13S,14S,17R)-13-ethyl-3-hydroxy-3-methylhexadecahydro-1H-cyclopenta[a]phenanthren-17-yl)propyl)-1H-pyrazole-4-carbonitrile]
Second: CC[C@@]1(O)CC[C@H]2[C@@H](CC[C@@H]3[C@@H]2CC[C@]2(C)[C@@H]([C@@H](C)Cn4nnc(C)n4)CC[C@@H]32)C1 [Example 333, (3R,5S,8R,9R,10S,13S,14S,17R)-3-ethyl-13-methyl-17-((R)-1-(5-methyl-2H-tetrazol-2-yl)propan-2-yl)hexadecahydro-1H-cyclopenta[a]phenanthren-3-ol]
The IC50 of the first is lower: under 100 nM for the first, 100 to 1000 nM for the second. The first is the more potent here.

`CCC[C@@]1(O)CC[C@@]2(COC)[C@H](CC[C@H]3[C@@H]4CC[C@H]([C@@H](C)Cn5nnc(C)n5)[C@@]4(C)CC[C@@H]32)C1` [Example 319, (3R,5R,8S,9S,10R,13S,14S,17R)-10-(methoxymethyl)-13-methyl-17-((R)-1-(5-methyl-2H-tetrazol-2-yl)propan-2-yl)-3-propylhexadecahydro-1H-cyclopenta[a]phenanthren-3-ol] and `CCC[C@@]1(O)CC[C@@]2(COC)[C@H](CC[C@H]3[C@@H]4CC[C@H]([C@@H](C)Cn5nnnc5C)[C@@]4(C)CC[C@@H]32)C1` [Example 321, (3R,5R,8S,9S,10R,13S,14S,17R)-10-(methoxymethyl)-13-methyl-17-((R)-1-(5-methyl-1H-tetrazol-1-yl)propan-2-yl)-3-propylhexadecahydro-1H-cyclopenta[a]phenanthren-3-ol] cannot be ordered by IC50: under 100 nM for the first, under 100 nM for the second.

`CCC[C@@]1(O)CC[C@@]2(COC)[C@H](CC[C@H]3[C@@H]4CC[C@H]([C@H](C)Cn5nnnc5C)[C@@]4(C)CC[C@@H]32)C1` [Example 322, (3R,5R,8S,9S,10R,13S,14S,17R)-10-(methoxymethyl)-13-methyl-17-((S)-1-(5-methyl-1H-tetrazol-1-yl)propan-2-yl)-3-propylhexadecahydro-1H-cyclopenta[a]phenanthren-3-ol] and `CCC[C@@]1(O)CC[C@H]2[C@H](CC[C@@H]3[C@@H]2CC[C@]2(C)[C@@H]([C@@H](C)Cn4nnnc4C)CC[C@@H]32)C1` [Example 324, (3R,5R,8R,9R,10S,13S,14S,17R)-13-methyl-17-(1-(5-methyl-1H-tetrazol-1-yl)propan-2-yl)-3-propylhexadecahydro-1H-cyclopenta[a]phenanthren-3-ol] cannot be ordered by IC50: under 100 nM for the first, under 100 nM for the second.

Compared with `COC[C@@]1(O)CC[C@@]2(C)[C@H](CC[C@@H]3[C@@H]2[C@@H](O)C[C@]2(C)[C@@H]([C@H](C)Cn4cc(C#N)cn4)CC[C@@H]32)C1` [Example 328, 1-((S)-2-((3R,5R,8S,9S,10S,11S,13S,14S,17R)-3,11-dihydroxy-3-(methoxymethyl)-10,13-dimethylhexadecahydro-1H-cyclopenta[a]phenanthren-17-yl)propyl)-1H-pyrazole-4-carbonitrile], `CCC[C@@]1(O)CC[C@H]2[C@@H](CC[C@@H]3[C@@H]2CC[C@]2(C)[C@@H]([C@@H](C)Cn4nnc(C)n4)CC[C@@H]32)C1` [Example 329, (3R,5S,8R,9R,10S,13S,14S,17R)-13-methyl-17-((R)-1-(5-methyl-2H-tetrazol-2-yl)propan-2-yl)-3-propylhexadecahydro-1H-cyclopenta[a]phenanthren-3-ol] is higher in IC50: 100 to 1000 nM for the first, at least 10000 nM for the second.

`CCC[C@@]1(O)CC[C@H]2[C@@H](CC[C@@H]3[C@@H]2CC[C@]2(C)[C@@H]([C@H](C)Cn4nnc(C)n4)CC[C@@H]32)C1` [Example 330, (3R,5S,8R,9R,10S,13S,14S,17R)-13-methyl-17-((S)-1-(5-methyl-2H-tetrazol-2-yl)propan-2-yl)-3-propylhexadecahydro-1H-cyclopenta[a]phenanthren-3-ol] and `CCC[C@@]1(O)CC[C@H]2[C@@H](CC[C@@H]3[C@@H]2CC[C@]2(C)[C@@H]([C@H](C)Cn4nnnc4C)CC[C@@H]32)C1` [Example 331, (3R,5S,8R,9R,10S,13S,14S,17R)-13-methyl-17-((S)-1-(5-methyl-1H-tetrazol-1-yl)propan-2-yl)-3-propylhexadecahydro-1H-cyclopenta[a]phenanthren-3-ol] cannot be ordered by IC50: at least 10000 nM for the first, at least 10000 nM for the second.
